# Reference: PMC5218480 (PLoS ONE, 2017)
# Test system: MV-4-11 cells
# Assay: Gene expression microarray analysis (Affymetrix PrimeView) and GSEA
# Type: cell-based, human
# Parameters: RFU PODN (11730768_x_at) / Fold change /veh PODN (11730768_x_at) / RFU LINC00158 (11744669_a_at) / Fold change /veh LINC00158 (11744669_a_at) / RFU DUSP10 (11751237_a_at) / Fold change /veh DUSP10 (11751237_a_at) / RFU ID3 (11757404_x_at) / Fold change /veh ID3 (11757404_x_at) / RFU PLEKHG5 (11737974_s_at) / Fold change /veh PLEKHG5 (11737974_s_at) / RFU LRRC4B (11730491_at) / Fold change /veh LRRC4B (11730491_at) / RFU GIMAP4 (11747438_a_at) / Fold change /veh GIMAP4 (11747438_a_at) / RFU KRT8 (11758183_x_at) / Fold change /veh KRT8 (11758183_x_at) / RFU CNN1 (11734310_a_at) / Fold change /veh CNN1 (11734310_a_at) / RFU VPS37D (11726825_at) / Fold change /veh VPS37D (11726825_at) / RFU C10orf10 (11716522_x_at) / Fold change /veh C10orf10 (11716522_x_at) / RFU KIR2DL2 /// KIR2DL4 /// KIR2DL5A /// KIR2DL5B /// KIR2DS1 /// KIR2DS2 /// KIR2DS3 /// KIR2DS4 /// KIR3DL3 /// KIR3DL3 /// KIR3DS1 (11738374_at) / Fold change /veh KIR2DL2 /// KIR2DL4 /// KIR2DL5A /// KIR2DL5B /// KIR2DS1 /// KIR2DS2 /// KIR2DS3 /// KIR2DS4 /// KIR3DL3 /// KIR3DL3 /// KIR3DS1 (11738374_at) / RFU C1QL1 (11718748_at) / Fold change /veh C1QL1 (11718748_at) / RFU TMPRSS4 (11747572_a_at) / Fold change /veh TMPRSS4 (11747572_a_at) / RFU HAMP (11756126_x_at) / Fold change /veh HAMP (11756126_x_at) / RFU RNFT2 (11725882_a_at) / Fold change /veh RNFT2 (11725882_a_at) / RFU NR4A2 (11747474_a_at) / Fold change /veh NR4A2 (11747474_a_at) / RFU ABCC12 (11746883_a_at) / Fold change /veh ABCC12 (11746883_a_at) / RFU TMEM136 (11760407_x_at) / Fold change /veh TMEM136 (11760407_x_at) / RFU CLDN22 /// WWC2 (11732394_at) / Fold change /veh CLDN22 /// WWC2 (11732394_at) / RFU HLA-DPB1 (11760878_x_at) / Fold change /veh HLA-DPB1 (11760878_x_at) / RFU SPINT1 (11716480_a_at) / Fold change /veh SPINT1 (11716480_a_at) / RFU GAP43 (11754022_s_at) / Fold change /veh GAP43 (11754022_s_at) / RFU A4GNT (11735810_at) / Fold change /veh A4GNT (11735810_at) / RFU PRB3 (11715151_x_at) / Fold change /veh PRB3 (11715151_x_at) / RFU TUBB4B (11761932_at) / Fold change /veh TUBB4B (11761932_at) / RFU CAPN14 (11732068_a_at) / Fold change /veh CAPN14 (11732068_a_at) / RFU TMCC2 (11721928_a_at) / Fold change /veh TMCC2 (11721928_a_at) / RFU IRGQ (11745062_a_at) / Fold change /veh IRGQ (11745062_a_at) / RFU FAM174B (11720279_a_at) / Fold change /veh FAM174B (11720279_a_at) / RFU TMPRSS4 (11748680_a_at) / Fold change /veh TMPRSS4 (11748680_a_at) / RFU FAM212B (11763350_a_at) / Fold change /veh FAM212B (11763350_a_at) / RFU PLEKHG5 (11743358_a_at) / Fold change /veh PLEKHG5 (11743358_a_at) / RFU ZSCAN30 (11745921_a_at) / Fold change /veh ZSCAN30 (11745921_a_at) / RFU CMKLR1 (11741424_a_at) / Fold change /veh CMKLR1 (11741424_a_at) / RFU LOC101060620 /// MAPK8IP1 (11723275_at) / Fold change /veh LOC101060620 /// MAPK8IP1 (11723275_at) / RFU SPTSSB (11747773_x_at) / Fold change /veh SPTSSB (11747773_x_at) / RFU PRSS12 (11739890_at) / Fold change /veh PRSS12 (11739890_at) / RFU BIN1 (11741810_x_at) / Fold change /veh BIN1 (11741810_x_at) / RFU WNT11 (11732464_a_at) / Fold change /veh WNT11 (11732464_a_at) / RFU C10orf10 (11716521_a_at) / Fold change /veh C10orf10 (11716521_a_at) / RFU C5orf56 (11738089_at) / Fold change /veh C5orf56 (11738089_at) / RFU CYB561 (11721691_x_at) / Fold change /veh CYB561 (11721691_x_at) / RFU ANKRD19P (11752326_a_at) / Fold change /veh ANKRD19P (11752326_a_at) / RFU OR2T12 /// OR2T33 /// OR2T8 (11738714_s_at) / Fold change /veh OR2T12 /// OR2T33 /// OR2T8 (11738714_s_at) / RFU VCAN (11748164_a_at) / Fold change /veh VCAN (11748164_a_at) / RFU JSRP1 (11732532_at) / Fold change /veh JSRP1 (11732532_at) / RFU KRTAP10-11 (11738290_x_at) / Fold change /veh KRTAP10-11 (11738290_x_at) / RFU MYO3A (11730013_a_at) / Fold change /veh MYO3A (11730013_a_at) / RFU EBF3 (11725865_a_at) / Fold change /veh EBF3 (11725865_a_at) / RFU CAMK2N1 (11719241_x_at) / Fold change /veh CAMK2N1 (11719241_x_at) / RFU C5orf56 (11738088_a_at) / Fold change /veh C5orf56 (11738088_a_at) / RFU OLFML3 (11715873_a_at) / Fold change /veh OLFML3 (11715873_a_at) / RFU LOC100653217 /// NTM (11731650_a_at) / Fold change /veh LOC100653217 /// NTM (11731650_a_at) / RFU MAPK11 (11762145_a_at) / Fold change /veh MAPK11 (11762145_a_at) / RFU FIZ1 (11724087_x_at) / Fold change /veh FIZ1 (11724087_x_at) / RFU OASL (11726364_x_at) / Fold change /veh OASL (11726364_x_at) / RFU SOX15 (11748057_x_at) / Fold change /veh SOX15 (11748057_x_at) / RFU CD79A (11719716_a_at) / Fold change /veh CD79A (11719716_a_at) / RFU HIST1H1D (11736915_at) / Fold change /veh HIST1H1D (11736915_at) / RFU CASKIN2 (11723855_a_at) / Fold change /veh CASKIN2 (11723855_a_at) / RFU LOC730098 (11760151_x_at) / Fold change /veh LOC730098 (11760151_x_at) / RFU OR4N2 (11742367_at) / Fold change /veh OR4N2 (11742367_at) / RFU PRRT2 (11749266_a_at) / Fold change /veh PRRT2 (11749266_a_at) / RFU SNX32 (11753110_a_at) / Fold change /veh SNX32 (11753110_a_at) / RFU CDHR5 (11726645_a_at) / Fold change /veh CDHR5 (11726645_a_at) / RFU RCAN1 (11760418_a_at) / Fold change /veh RCAN1 (11760418_a_at) / RFU FAM167A (11723789_a_at) / Fold change /veh FAM167A (11723789_a_at) / RFU FAM26E (11764081_at) / Fold change /veh FAM26E (11764081_at) / RFU ISYNA1 (11749810_s_at) / Fold change /veh ISYNA1 (11749810_s_at) / RFU ACY1 (11761880_at) / Fold change /veh ACY1 (11761880_at) / RFU 11764098_at / Fold change /veh 11764098_at / RFU SAMD14 (11745864_x_at) / Fold change /veh SAMD14 (11745864_x_at) / RFU NPB (11741838_a_at) / Fold change /veh NPB (11741838_a_at) / RFU TMPRSS6 (11731388_a_at) / Fold change /veh TMPRSS6 (11731388_a_at) / RFU KRTAP10-2 (11738614_at) / Fold change /veh KRTAP10-2 (11738614_at) / RFU ARHGAP8 /// PRR5-ARHGAP8 (11727945_x_at) / Fold change /veh ARHGAP8 /// PRR5-ARHGAP8 (11727945_x_at) / RFU KRTAP5-7 /// NADSYN1 (11734609_at) / Fold change /veh KRTAP5-7 /// NADSYN1 (11734609_at) / RFU RASL12 (11751679_a_at) / Fold change /veh RASL12 (11751679_a_at) / RFU CDKN2B (11736163_a_at) / Fold change /veh CDKN2B (11736163_a_at) / RFU PRF1 (11729649_at) / Fold change /veh PRF1 (11729649_at) / RFU, ZNF638 /// ZNF638-IT1 / Fold change vs veh, ZNF638 /// ZNF638-IT1 / RFU, PANK3 / Fold change vs veh, PANK3 / RFU, SH3YL1 / Fold change vs veh, SH3YL1 / RFU, ZEB2 / Fold change vs veh, ZEB2 / RFU, NRIP1 / Fold change vs veh, NRIP1 / RFU, PTTG1IP / Fold change vs veh, PTTG1IP / RFU, CAPN2 / Fold change vs veh, CAPN2 / RFU, MED14 / Fold change vs veh, MED14 / RFU, SNORA58 / Fold change vs veh, SNORA58 / RFU, C1orf63 / Fold change vs veh, C1orf63 / RFU, LRRFIP1 / Fold change vs veh, LRRFIP1 / RFU, NDUFAF7 / Fold change vs veh, NDUFAF7 / RFU, SLC12A2 / Fold change vs veh, SLC12A2 / RFU, IBTK / Fold change vs veh, IBTK / RFU, ESF1 / Fold change vs veh, ESF1 / Fold change vs veh, TMEM50B / RFU, TAOK1 / Fold change vs veh, TAOK1 / RFU, ACBD3 / Fold change vs veh, ACBD3 / RFU, TMA16 / Fold change vs veh, TMA16 / RFU, RWDD3 / Fold change vs veh, RWDD3 / RFU, BCAT1 / Fold change vs veh, BCAT1 / RFU, EDEM3 / Fold change vs veh, EDEM3 / RFU, TMEM33 / Fold change vs veh, TMEM33 / RFU, WDR75 / Fold change vs veh, WDR75 / RFU, AHCTF1 / Fold change vs veh, AHCTF1 / RFU, TFRC / Fold change vs veh, TFRC / RFU, ZDHHC17 / Fold change vs veh, ZDHHC17 / RFU, NOM1 / Fold change vs veh, NOM1 / RFU, ARL8B / Fold change vs veh, ARL8B / RFU, ZBTB11 / Fold change vs veh, ZBTB11 / RFU, TAMM41 / Fold change vs veh, TAMM41 / RFU, KIAA1704 /// LOC100996395 / Fold change vs veh, KIAA1704 /// LOC100996395 / RFU, ING1 / Fold change vs veh, ING1 / RFU, TRMT61B / Fold change vs veh, TRMT61B / RFU, FUBP3 / Fold change vs veh, FUBP3 / RFU, TP53 / Fold change vs veh, TP53 / RFU, TNKS2 / Fold change vs veh, TNKS2 / RFU, ZFP14 / Fold change vs veh, ZFP14 / RFU, ACTR2 / Fold change vs veh, ACTR2 / RFU, PPP3R1 / Fold change vs veh, PPP3R1 / RFU, PIK3R1 / Fold change vs veh, PIK3R1 / RFU, HNRNPA1 / Fold change vs veh, HNRNPA1 / RFU, RNF170 / Fold change vs veh, RNF170 / RFU, ZNF28 / Fold change vs veh, ZNF28 / RFU, RNGTT / Fold change vs veh, RNGTT / RFU, OGT / Fold change vs veh, OGT / RFU, BRD1 / Fold change vs veh, BRD1 / RFU, MARS / Fold change vs veh, MARS / RFU, ZNF655 / Fold change vs veh, ZNF655 / RFU, FAHD1 / Fold change vs veh, FAHD1 / RFU, BDP1 / Fold change vs veh, BDP1 / RFU, LRRCC1 / Fold change vs veh, LRRCC1 / RFU, ARID1A / Fold change vs veh, ARID1A / RFU, ZNF146 / Fold change vs veh, ZNF146 / RFU, ZNF330 / Fold change vs veh, ZNF330 / RFU, GPN3 / Fold change vs veh, GPN3 / RFU, C9orf123 / Fold change vs veh, C9orf123 / RFU, N4BP2L2 / Fold change vs veh, N4BP2L2 / RFU, ARFIP1 / Fold change vs veh, ARFIP1 / RFU, FAM179B / Fold change vs veh, FAM179B / RFU, BCL10 / Fold change vs veh, BCL10 / RFU, UHRF1BP1L / Fold change vs veh, UHRF1BP1L / RFU, BET1 / Fold change vs veh, BET1 / RFU, CNOT2 / Fold change vs veh, CNOT2 / RFU, ZNF268 / Fold change vs veh, ZNF268 / Fold change vs veh, ZNF507 / RFU, DGCR2 / Fold change vs veh, DGCR2 / RFU, WDSUB1 / Fold change vs veh, WDSUB1 / Fold change vs veh, HSP90B1 /// MIR3652 / RFU, ADSS / Fold change vs veh, ADSS / RFU, GK / Fold change vs veh, GK / RFU, ZNF148 / Fold change vs veh, ZNF148 / RFU, TAF9 / Fold change vs veh, TAF9 / RFU, SLC1A5 / Fold change vs veh, SLC1A5 / RFU, SLMO2 / Fold change vs veh, SLMO2 / RFU, ABCC4 / Fold change vs veh, ABCC4 / RFU, LOC101060439 /// RAP1B / Fold change vs veh, LOC101060439 /// RAP1B / RFU, RFX7 / Fold change vs veh, RFX7 / RFU, GTPBP10 / Fold change vs veh, GTPBP10 / RFU, CNEP1R1 / Fold change vs veh, CNEP1R1 / RFU, BIVM-ERCC5 /// ERCC5 / Fold change vs veh, BIVM-ERCC5 /// ERCC5 / RFU, ILF3 / Fold change vs veh, ILF3 / RFU 11762660_at / Fold change /veh 11762660_at / RFU VCAN (11757783_s_at) / Fold change /veh VCAN (11757783_s_at) / RFU DDX43 (11728927_at) / Fold change /veh DDX43 (11728927_at) / RFU KRT8 (11758188_x_at) / Fold change /veh KRT8 (11758188_x_at) / RFU NKD1 (11759106_at) / Fold change /veh NKD1 (11759106_at) / RFU SRD5A1 (11742802_a_at) / Fold change /veh SRD5A1 (11742802_a_at) / RFU TPSAB1 /// TPSB2 (11721975_s_at) / Fold change /veh TPSAB1 /// TPSB2 (11721975_s_at) / RFU GSTM3 (11746129_a_at) / Fold change /veh GSTM3 (11746129_a_at) / RFU IL23R (11737362_x_at) / Fold change /veh IL23R (11737362_x_at) / RFU TMEM51 (11727254_a_at) / Fold change /veh TMEM51 (11727254_a_at) / RFU PIWIL2 (11732686_x_at) / Fold change /veh PIWIL2 (11732686_x_at) / RFU ORM1 (11744905_x_at) / Fold change /veh ORM1 (11744905_x_at) / RFU CCDC152 (11743942_at) / Fold change /veh CCDC152 (11743942_at) / RFU ECM1 (11717891_a_at) / Fold change /veh ECM1 (11717891_a_at) / RFU IL23R (11748794_a_at) / Fold change /veh IL23R (11748794_a_at) / RFU TNFAIP8L3 (11732012_x_at) / Fold change /veh TNFAIP8L3 (11732012_x_at) / RFU MBOAT4 (11741988_at) / Fold change /veh MBOAT4 (11741988_at) / RFU 11764193_at / Fold change /veh 11764193_at / RFU TMEM53 (11763286_at) / Fold change /veh TMEM53 (11763286_at) / RFU MAGEB2 (11727129_at) / Fold change /veh MAGEB2 (11727129_at) / RFU TMEM200A (11744735_a_at) / Fold change /veh TMEM200A (11744735_a_at) / RFU CCDC152 (11751479_a_at) / Fold change /veh CCDC152 (11751479_a_at) / RFU FAM211A (11726209_a_at) / Fold change /veh FAM211A (11726209_a_at) / RFU RGS16 (11746705_a_at) / Fold change /veh RGS16 (11746705_a_at) / RFU VCAN (11755009_s_at) / Fold change /veh VCAN (11755009_s_at) / RFU RHOB (11743442_s_at) / Fold change /veh RHOB (11743442_s_at) / RFU RGS16 (11720943_a_at) / Fold change /veh RGS16 (11720943_a_at) / RFU RGS16 (11720944_at) / Fold change /veh RGS16 (11720944_at) / RFU, VPS4B / Fold change vs veh, VPS4B / RFU, CREB1 / Fold change vs veh, CREB1 / RFU, DNAJC13 / Fold change vs veh, DNAJC13 / RFU, GNAQ / Fold change vs veh, GNAQ / RFU, CDK5R1 / Fold change vs veh, CDK5R1 / RFU, ZRANB3 / Fold change vs veh, ZRANB3 / RFU, CUL4A / Fold change vs veh, CUL4A / RFU, CCNY / Fold change vs veh, CCNY / RFU, UFL1 / Fold change vs veh, UFL1 / RFU, COG3 / Fold change vs veh, COG3 / RFU, DIAPH2 / Fold change vs veh, DIAPH2 / RFU, SKA2 / Fold change vs veh, SKA2 / RFU, AFF3 / Fold change vs veh, AFF3 / RFU, LMF1 / Fold change vs veh, LMF1 / RFU, IPO11 / Fold change vs veh, IPO11 / RFU, DFFB / Fold change vs veh, DFFB / RFU, FOXP1 / Fold change vs veh, FOXP1 / RFU, CARD8 / Fold change vs veh, CARD8 / RFU, STRN3 / Fold change vs veh, STRN3 / RFU, ADK / Fold change vs veh, ADK / RFU, RASSF2 / Fold change vs veh, RASSF2 / RFU, WIPF1 / Fold change vs veh, WIPF1 / RFU, LARP1B / Fold change vs veh, LARP1B / RFU, RASA1 / Fold change vs veh, RASA1 / RFU, RB1 / Fold change vs veh, RB1 / RFU, PPFIA1 / Fold change vs veh, PPFIA1 / RFU, MAT2A / Fold change vs veh, MAT2A / RFU, CCT5 / Fold change vs veh, CCT5 / RFU, WDR92 / Fold change vs veh, WDR92 / RFU, CUX1 / Fold change vs veh, CUX1 / RFU, TTC7A / Fold change vs veh, TTC7A / RFU, TMEM135 / Fold change vs veh, TMEM135 / RFU, DEPTOR / Fold change vs veh, DEPTOR / RFU, CPM / Fold change vs veh, CPM / RFU, DNAJB6 / Fold change vs veh, DNAJB6 / RFU, CACNA2D3 / Fold change vs veh, CACNA2D3 / RFU, DTX4 / Fold change vs veh, DTX4 / RFU, TFCP2 / Fold change vs veh, TFCP2 / RFU, GMCL1 /// GMCL1P1 / Fold change vs veh, GMCL1 /// GMCL1P1 / RFU, AEBP2 / Fold change vs veh, AEBP2 / RFU, SNHG1 /// SNORD22 /// SNORD25 /// SNORD26 /// SNORD27 /// SNORD28 /// SNORD29 /// SNORD31 / Fold change vs veh, SNHG1 /// SNORD22 /// SNORD25 /// SNORD26 /// SNORD27 /// SNORD28 /// SNORD29 /// SNORD31 / Fold change (Aza/veh), C12orf56 (ProbeSet 11735607_a_at) / Fold change (ACY-1035/veh), C12orf56 (ProbeSet 11735607_a_at) / Fold change (Aza/veh), FGFR1OP (ProbeSet 11751329_s_at) / Fold change (ACY-1035/veh), FGFR1OP (ProbeSet 11751329_s_at) / Fold change (Aza/veh), VPS36 (ProbeSet 11739960_a_at) / Fold change (ACY-1035/veh), VPS36 (ProbeSet 11739960_a_at) / RFU SYPL1 (11715823_x_at) / Fold change /veh SYPL1 (11715823_x_at) / RFU IGFBP7 (11715501_s_at) / Fold change /veh IGFBP7 (11715501_s_at) / RFU REEP3 (11722064_at) / Fold change /veh REEP3 (11722064_at) / RFU IGLL1 (11728026_x_at) / Fold change /veh IGLL1 (11728026_x_at): dose or concentration left out as unconfirmed
# Conditions: ProbeSet 11733831_s_at; LIST D
smiles,measurement,value
Nc1ccc(-c2cccs2)cc1NC(=O)c1ccc2c(c1)cc(C1CC1)n2CCN1CCOCC1 [ACY-1035],"RFU, GMCL1 /// GMCL1P1",34.22 RFU
